Counter-ions that a name gives are not always drawn.

One assay deals with human MCH-1 receptor (Homo sapiens, UniProt Q99705). Put plainly: Binding assay for human melanin-concentrating hormone (MCH-1) receptor, radioligand displacement on CHO-K1 cell membranes.
human MCH-1 receptor, sequence (Q99705 whole entry): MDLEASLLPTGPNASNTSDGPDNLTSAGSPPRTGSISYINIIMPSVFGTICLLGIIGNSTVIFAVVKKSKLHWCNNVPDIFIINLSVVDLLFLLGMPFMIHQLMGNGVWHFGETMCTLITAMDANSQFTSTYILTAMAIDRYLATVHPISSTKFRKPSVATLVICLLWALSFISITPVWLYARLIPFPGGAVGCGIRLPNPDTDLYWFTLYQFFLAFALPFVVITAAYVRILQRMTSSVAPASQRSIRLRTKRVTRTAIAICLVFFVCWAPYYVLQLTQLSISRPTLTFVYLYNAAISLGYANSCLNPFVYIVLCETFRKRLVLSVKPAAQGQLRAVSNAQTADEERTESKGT
Details: not given
Background: In a radioligand displacement assay an active substance lowers the binding of a labelled ligand.
As a reminder, the Ki is a measure of affinity in units of concentration, obtained from inhibition or displacement. Read a high Ki as weaker binding. In turn, `O=c1cc(OCc2ccc(F)cn2)ccn1-c1ccc2c3c(oc2c1)CCCNC3` [Example 37, 4-((5-Fluoropyridin-2-yl)methoxy)-1-(2,3,4,5-tetrahydro-1H-benzofuro[3,2-c]azepin-8-yl)pyridin-2(1H)-one hydrochloride] displayed an inhibition constant (Ki) of 4.5 nM. `O=c1cc(OCc2ccc(Cl)cn2)ccn1-c1ccc2c3c(oc2c1)CCCNC3` [Example 38, 4-((5-Chloropyridin-2-yl)methoxy)-1-(2,3,4,5-tetrahydro-1H-benzofuro[3,2-c]azepin-8-yl)pyridin-2(1H)-one hydrochloride] registered an inhibitory constant (Ki) of 3 nM. As for `O=c1cc(OCc2ccc(F)cn2)ccn1-c1ccc2c3c(oc2c1)CCNCC3` [Example 39, 4-((5-Fluoropyridin-2-yl)methoxy)-1-(2,3,4,5-tetrahydro-1H-benzofuro[2,3-d]azepin-8-yl)pyridin-2(1H)-one hydrochloride], the Ki was found to be 9 nM. Still for that read-out and setting: next, `O=c1cc(OCc2ccccc2)ccn1-c1ccc2c3c(oc2c1)CCCNC3` [Example 40, 4-(Benzyloxy)-1-(2,3,4,5-tetrahydro-1H-benzofuro[3,2-c]azepin-8-yl)pyridin-2(1H)-one hydrochloride]: 3.4 nM; `O=c1cc(OCc2ccccc2)ccn1-c1ccc2c3c(oc2c1)CCNCC3` [Example 41, 4-(Benzyloxy)-1-(2,3,4,5-tetrahydro-1H-benzofuro[2,3-d]azepin-8-yl)pyridin-2(1H)-one hydrochloride]: 5.7 nM. Same read-out and setting: next, `O=c1cc(OCc2ccc(Cl)cn2)ccn1-c1ccc2c3c(oc2c1)CCNCC3` [Example 42, 4-((5-Chloropyridin-2-yl)methoxy)-1-(2,3,4,5-tetrahydro-1H-benzofuro[2,3-d]azepin-8-yl)pyridin-2(1H)-one hydrochloride]: 4.7 nM. Same read-out and setting: next, `O=c1cc(OCc2cccc(C(F)(F)F)n2)ccn1-c1ccc2c3c(oc2c1)CCCNC3` [Example 43, 1-(2,3,4,5-Tetrahydro-1H-benzofuro[3,2-c]azepin-8-yl)-4-((6-(trifluoromethyl)pyridin-2-yl)methoxy)pyridin-2(1H)-one hydrochloride]: 9.7 nM; `O=c1cc(OCc2ccc(F)cn2)cnn1-c1ccc2c3c(oc2c1)CCCNC3` [Example 44, 5-((5-Fluoropyridin-2-yl)methoxy)-2-(2,3,4,5-tetrahydro-1H-benzofuro[3,2-c]azepin-8-yl)pyridazin-3(2H)-one hydrochloride]: 13 nM. As to `O=c1cc(OCc2ccc(C(F)(F)F)nc2)ccn1-c1ccc2c3c(oc2c1)CCCNC3` [Example 45, 1-(2,3,4,5-Tetrahydro-1H-benzofuro[3,2-c]azepin-8-yl)-4-((6-(trifluoromethyl)pyridin-3-yl)methoxy)pyridin-2(1H)-one hydrochloride], the Ki was 29 nM.

The molecule `Cc1ccc(COc2ccn(-c3ccc4c5c(oc4c3)CCCNC5)c(=O)c2)cn1` [Example 46, 4-((6-Methylpyridin-3-yl)methoxy)-1-(2,3,4,5-tetrahydro-1H-benzofuro[3,2-c]azepin-8-yl)pyridin-2(1H)-one hydrochloride] had a Ki of 47 nM.

As for `O=c1cc(OCc2ccc(C(F)(F)F)nc2)ccn1-c1ccc2c3c(oc2c1)CCNCC3` [Example 47, 1-(2,3,4,5-Tetrahydro-1H-benzofuro[2,3-d]azepin-8-yl)-4-((6-(trifluoromethyl)pyridin-3-yl)methoxy)pyridin-2(1H)-one hydrochloride], the Ki came to 55 nM. Consider `O=c1cc(-c2ccc(C(F)(F)F)cc2)ccn1-c1ccc2c3c(oc2c1)CCCNC3` [Example 48, 1-(2,3,4,5-Tetrahydro-1H-benzofuro[3,2-c]azepin-8-yl)-4-(4-(trifluoromethyl)phenyl)pyridin-2(1H)-one hydrochloride], for which the Ki turned out to be 4.5 nM. Same read-out and setting: next, `CN1CCCc2oc3cc(-n4ccc(OCc5cccc(C(F)(F)F)n5)cc4=O)ccc3c2C1` [Example 49, 1-(2-Methyl-2,3,4,5-tetrahydro-1H-benzofuro[3,2-c]azepin-8-yl)-4-((6-(trifluoromethyl)pyridin-2-yl)methoxy)pyridin-2(1H)-one hydrochloride]: 22 nM; `CC(=O)N1CCc2c(sc3cc(-n4ccc(OCc5ccc(F)cn5)cc4=O)ccc23)C1` [Example 53, 1-(2-Acetyl-1,2,3,4-tetrahydrobenzothieno[2,3-c]pyridin-7-yl)-4-((5-fluoropyridin-2-yl)methoxy)pyridin-2(1H)-one]: 39 nM. The same measure, in the same setting: next, `O=c1cc(OCc2ccc(F)cn2)ccn1-c1ccc2c3c(sc2c1)CCNC3` [Example 55, 4-((5-Fluoropyridin-2-yl)methoxy)-1-(1,2,3,4-tetrahydrobenzothieno[3,2-c]pyridin-7-yl)pyridin-2(1H)-one hydrochloride]: 2.7 nM.

`CCN1CCc2c(sc3cc(-n4ccc(OCc5ccc(F)cn5)cc4=O)ccc23)C1` [Example 56, 1-(2-Ethyl-1,2,3,4-tetrahydrobenzothieno[2,3-c]pyridin-7-yl)-4-((5-fluoropyridin-2-yl)methoxy)pyridin-2(1H)-one hydrochloride]: the affinity corresponds to a Ki of 9.5 nM. On the same count and under the same terms, next, `CC(C)N1CCc2c(sc3cc(-n4ccc(OCc5ccc(F)cn5)cc4=O)ccc23)C1` [Example 57, 4-((5-Fluoropyridin-2-yl)methoxy)-1-(2-isopropyl-1,2,3,4-tetrahydrobenzothieno[2,3-c]pyridin-7-yl)pyridin-2(1H)-one hydrochloride]: 11 nM; `CN1CCc2c(sc3cc(-n4ccc(OCc5ccc(F)cn5)cc4=O)ccc23)C1` [Example 58, 4-((5-Fluoropyridin-2-yl)methoxy)-1-(2-methyl-1,2,3,4-tetrahydrobenzothieno[2,3-c]pyridin-7-yl)pyridin-2(1H)-one hydrochloride]: 6.2 nM. Still for that read-out and setting: next, `O=c1cc(OCc2ccc(F)cn2)ccn1-c1ccc2c3c(sc2c1)CN(CCF)CC3` [Example 59, 1-(2-(2-Fluoroethyl)-1,2,3,4-tetrahydrobenzothieno[2,3-c]pyridin-7-yl)-4-((5-fluoropyridin-2-yl)methoxy)pyridin-2(1H)-one hydrochloride]: 36 nM; `O=C1CN(CCc2ccc(F)cn2)CCN1c1ccc2c3c(sc2c1)CNCC3` [Example 60, 4-(2-(5-Fluoropyridin-2-yl)ethyl)-1-(1,2,3,4-tetrahydrobenzothieno[2,3-c]pyridin-7-yl)piperazin-2-one hydrochloride]: 118 nM; `O=c1cc(OCc2ccc(F)cn2)cnn1-c1ccc2c3c(sc2c1)CNCC3` [Example 61, 5-((5-Fluoropyridin-2-yl)methoxy)-2-(1,2,3,4-tetrahydrobenzothieno[2,3-c]pyridin-7-yl)pyridazin-3(2H)-one]: 34 nM. Same read-out and setting: next, `Cc1ccc(COc2ccn(-c3ccc4c5c(sc4c3)CNCC5)c(=O)c2)cn1` [Example 62, 4-((6-Methylpyridin-3-yl)methoxy)-1-(1,2,3,4-tetrahydrobenzothieno[2,3-c]pyridin-7-yl)pyridin-2(1H)-one hydrochloride]: 103 nM. For `O=C1CN(CCc2ccc(Cl)cc2)CCN1c1ccc2c3c(sc2c1)CNCC3` [Example 63, 4-(4-Chlorophenethyl)-1-(1,2,3,4-tetrahydrobenzothieno[2,3-c]pyridin-7-yl)piperazin-2-one hydrochloride], the affinity, expressed as Ki, was 33 nM. Same read-out and setting: next, `O=c1cc(OCc2ccc(C(F)(F)F)nc2)ccn1-c1ccc2c3c(sc2c1)CNCC3` [Example 64, 1-(1,2,3,4-Tetrahydrobenzothieno[2,3-c]pyridin-7-yl)-4-((6-(trifluoromethyl)pyridin-3-yl)methoxy)pyridin-2(1H)-one hydrochloride]: 48 nM; `O=c1cc(OCc2ccc(F)cn2)ccn1-c1ccc2c3c(oc2c1)CCN(CCF)C3` [Example 72, 1-(2-(2-Fluoroethyl)-1,2,3,4-tetrahydrobenzofuro[3,2-c]pyridin-7-yl)-4-((5-fluoropyridin-2-yl)methoxy)pyridin-2(1H)-one hydrochloride]: 29 nM; `O=c1cc(OCc2ccccc2)ccn1-c1ccc2c3c(oc2c1)CCN1CCCC31` (centres unmarked) [Example 73, 4-(Benzyloxy)-1-(1,2,3,5,6,11c-hexahydrobenzofuro[2,3-g]indolizin-9-yl)pyridin-2(1H)-one hydrochloride]: 5.5 nM. Molecule `O=c1cc(OCc2ccccc2)ccn1-c1ccc2oc3c(c2c1)CNCC3` [Example 74, 4-(Benzyloxy)-1-(1,2,3,4-tetrahydrobenzofuro[3,2-c]pyridin-8-yl)pyridin-2(1H)-one hydrochloride] registered a Ki of 373 nM. On the same count and under the same terms, next, `O=c1cc(OCc2ccccc2)ccn1-c1ccc2oc3c(c2c1)CCNCC3` [Example 77, 4-(Benzyloxy)-1-(2,3,4,5-tetrahydro-1H-benzofuro[2,3-d]azepin-9-yl)pyridin-2(1H)-one hydrochloride]: 44 nM.

The assay is the same for the next values; noted with them: read-out: MCH1 % inhibition @ 1 uM.
A word on the inhibition: it is the drop in the measured response relative to a control, in per cent. In the case of `O=C1NCCc2c1sc1cc(-n3ccc(OCc4ccc(F)cn4)cc3=O)ccc21` [Example 54, 7-(4-((5-Fluoropyridin-2-yl)methoxy)-2-oxopyridin-1(2H)-yl)-3,4-dihydrobenzothieno[2,3-c]pyridin-1(2H)-one], the inhibition at 1 µM came out at 60%.

For the molecule `O=c1cc(OCc2ccc(F)cn2)ccn1-c1ccc2oc3c(c2c1)CNCCC3` [Example 75, 4-((5-Fluoropyridin-2-yl)methoxy)-1-(2,3,4,5-tetrahydro-1H-benzofuro[3,2-c]azepin-9-yl)pyridin-2(1H)-one hydrochloride], the inhibition at 1 µM was 34%. Still for that read-out and setting: next, `O=c1cc(OCc2ccc(F)cn2)ccn1-c1ccc2oc3c(c2c1)CNCC3` [Example 76, 4-((5-Fluoropyridin-2-yl)methoxy)-1-(1,2,3,4-tetrahydrobenzofuro[3,2-c]pyridin-8-yl)pyridin-2(1H)-one hydrochloride]: 35%; `O=c1cc(OCc2ccccc2)ccn1-c1ccc2oc3c(c2c1)CNCCC3` [Example 78, 4-(Benzyloxy)-1-(2,3,4,5-tetrahydro-1H-benzofuro[3,2-c]azepin-9-yl)pyridin-2(1H)-one hydrochloride]: 35%.

For the origin of these results see patent US20140163012A1, “PYRIDO-/AZEPINO-BENZOFURAN AND PYRIDO-/AZEPINO-BENZOTHIOPHENE MCH-1 ANTAGONISTS, METHODS OF MAKING, AND USE THEREOF” (Albany Molecular Research, Inc., priority 2012, published 2014).
